According to patent publication US8119616B2, “Formulation of quinazoline based EGFR inhibitors containing a zinc binding moiety” (Curis, Inc., priority 2007, dated 2012):

Columns and labels:
[1] = male, CD-1, mouse, in vivo, ip, 7 days
Method: 7-day-multiple dosing MTD in mice • a. CD-1 mice, male, 24-26 gram • b. Dosing at 0, 50, 100, 200 mg/kg/d ip • c. 6 mice per group • d. Blood and organs will be collected 2 hr after last dosing on Day 7 for hematology
Stock solution is diluted with 30% CAPTISOL before use.

Breast_MDAMB468 = assay: Cell proliferation assay (ATPlite); format: cell-based; details: 72 hours, 0.5% fetal bovine serum
Method: (§1) A representative number of compounds were assayed against several different cell lines using the cell proliferation assay:
(§2) Cell Proliferation Assay:
(§3) Cancer cell lines were plated at 5,000 to 10,000 per well in 96-well flatted bottomed plates with various concentration of compounds. The cells were incubated with compounds for 72 hours in the presence of 0.5% of fetal bovine serum. Growth inhibition was accessed by adenosine triphosphate (ATP) content assay using Perkin Elmer ATPlite kit. ATPlite is an ATP monitoring system based on firefly luciferase. Briefly, 25 μl of mammalian cell lysis solution was added to 50 μl of phenol red-free culture medium per well to lyse the cells and stabilize the ATP. 25 μl of substrate solution was then added to the well and subsequently the luminescence was measured.

Breast_SkBr3 = assay: Cell proliferation assay (ATPlite); format: cell-based; details: 72 hours, 0.5% fetal bovine serum
Method: as §1, §2, §3

Prostate_PC3 = assay: Cell proliferation assay (ATPlite); format: cell-based; details: 72 hours, 0.5% fetal bovine serum
Method: as §1, §2, §3

Lung_H460 = assay: Cell proliferation assay (ATPlite); format: cell-based; details: 72 hours, 0.5% fetal bovine serum
Method: as §1, §2, §3

Pancreas_BxPC3 = assay: Cell proliferation assay (ATPlite); format: cell-based; details: 72 hours, 0.5% fetal bovine serum
Method: as §1, §2, §3

Epidermoid_A431 = assay: Cell proliferation assay (ATPlite); format: cell-based; details: 72 hours, 0.5% fetal bovine serum
Method: as §1, §2, §3

Pancreas_PANC1 = assay: Cell proliferation assay (ATPlite); format: cell-based; details: 72 hours, 0.5% fetal bovine serum
Method: as §1, §2, §3

Pancreas_MiaPaCa2 = assay: Cell proliferation assay (ATPlite); format: cell-based; details: 72 hours, 0.5% fetal bovine serum
Method: as §1, §2, §3

Lung_H358 = assay: Cell proliferation assay (ATPlite); format: cell-based; details: 72 hours, 0.5% fetal bovine serum
Method: as §1, §2, §3

Pancreas_Capan1 = assay: Cell proliferation assay (ATPlite); format: cell-based; details: 72 hours, 0.5% fetal bovine serum
Method: as §1, §2, §3

Lung_H292 = assay: Cell proliferation assay (ATPlite); format: cell-based; details: 72 hours, 0.5% fetal bovine serum
Method: as §1, §2, §3

Pancreas_HPAC = assay: Cell proliferation assay (ATPlite); format: cell-based; details: 72 hours, 0.5% fetal bovine serum
Method: as §1, §2, §3

Lung_H2122 = assay: Cell proliferation assay (ATPlite); format: cell-based; details: 72 hours, 0.5% fetal bovine serum
Method: as §1, §2, §3

Prostate_22RV1 = assay: Cell proliferation assay (ATPlite); format: cell-based; details: 72 hours, 0.5% fetal bovine serum
Method: as §1, §2, §3

Pancreas_CFPAC = assay: Cell proliferation assay (ATPlite); format: cell-based; details: 72 hours, 0.5% fetal bovine serum
Method: as §1, §2, §3

Breast_MCF7 = assay: Cell proliferation assay (ATPlite); format: cell-based; details: 72 hours, 0.5% fetal bovine serum
Method: as §1, §2, §3

Colon_HCT116 = assay: Cell proliferation assay (ATPlite); format: cell-based; details: 72 hours, 0.5% fetal bovine serum
Method: as §1, §2, §3

HDAC = assay: Ac-H4 and Ac-H3 accumulation in MDA-MB-468 breast cancer cell line; format: cell-based; details: FIG. 2

C#Cc1cccc(Nc2ncnc3cc(OC)c(OCCCCCCC(=O)NO)cc23)c1 [Compound 12, 7-(4-(3-ethynylphenylamino)-7-methoxyquinazolin-6-yloxy)-N-hydroxyheptanamide]
dose that did not result in a significant change in body weight [1]: up to 100 mg/kg
IC50 (Breast_MDAMB468): < 100 nM
IC50 (Breast_SkBr3): 100 to 1000 nM
IC50 (Prostate_PC3): 100 to 1000 nM
IC50 (Lung_H460): 100 to 1000 nM
IC50 (Pancreas_BxPC3): < 100 nM
IC50 (Epidermoid_A431): 100 to 1000 nM
IC50 (Pancreas_PANC1): 100 to 1000 nM
IC50 (Pancreas_MiaPaCa2): 100 to 1000 nM
IC50 (Lung_H358): 100 to 1000 nM
IC50 (Pancreas_Capan1): 100 to 1000 nM
IC50 (Lung_H292): < 100 nM
IC50 (Pancreas_HPAC): 1000 to 10000 nM
IC50 (Lung_H2122): 100 to 1000 nM
IC50 (Prostate_22RV1): 100 to 1000 nM
IC50 (Pancreas_CFPAC): 100 to 1000 nM
IC50 (Breast_MCF7): < 100 nM
IC50 (Colon_HCT116): 100 to 1000 nM
inhibition of histone acetylation compared with SAHA (HDAC): improvement in inhibition
